In patent publication US9393232B2 (BeiGene, Ltd., priority 2013, dated 2016):
Read-outs that look alike come from different tables or passages of the source.

Legend:
[1] = molecular target: Recombinant human BRDT(1-397) (Homo sapiens (Human), UniProt Q58F21); test: BRDT TR-FRET biochemical IC50 assay; type: binding
[2] = molecular target: Recombinant human BRD2(1-473) (Homo sapiens (Human), UniProt P25440); test: BRD2 TR-FRET biochemical IC50 assay; type: binding
[3] = molecular target: Recombinant human BRD3(1-435) (Homo sapiens (Human), UniProt Q15059); test: BRD3 TR-FRET biochemical IC50 assay; type: binding
[4] = molecular target: Recombinant human BRD4(1-477) (Homo sapiens (Human), UniProt O60885); test: BRD4 TR-FRET biochemical IC50 assay; type: binding; details: tetra-acetylated histone peptide
MV4-11 = MV4-11 (3 Days) EC50; type: cell-based
[5] = TR-FRET, tetra-acetylated histone peptide, read-out: BRDT IC50
[6] = TR-FRET, tetra-acetylated histone peptide, read-out: BRD2 IC50
[7] = TR-FRET, tetra-acetylated histone peptide, read-out: BRD3 IC50

Chain of Recombinant human BRD2(1-473) (P25440 1-473): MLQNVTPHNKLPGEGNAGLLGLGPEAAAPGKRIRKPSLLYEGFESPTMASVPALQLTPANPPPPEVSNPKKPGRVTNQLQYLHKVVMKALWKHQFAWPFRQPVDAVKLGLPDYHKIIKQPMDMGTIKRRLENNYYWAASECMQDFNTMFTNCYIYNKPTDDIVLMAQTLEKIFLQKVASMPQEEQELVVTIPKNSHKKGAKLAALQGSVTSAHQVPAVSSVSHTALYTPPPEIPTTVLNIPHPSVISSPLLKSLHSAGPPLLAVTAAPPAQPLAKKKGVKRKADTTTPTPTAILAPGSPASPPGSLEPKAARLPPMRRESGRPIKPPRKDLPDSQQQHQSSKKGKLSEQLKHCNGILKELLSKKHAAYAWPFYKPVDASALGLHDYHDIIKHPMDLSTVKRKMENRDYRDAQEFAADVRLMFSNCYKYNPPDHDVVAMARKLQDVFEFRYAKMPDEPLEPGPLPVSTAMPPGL
Chain of Recombinant human BRD3(1-435) (Q15059 1-435): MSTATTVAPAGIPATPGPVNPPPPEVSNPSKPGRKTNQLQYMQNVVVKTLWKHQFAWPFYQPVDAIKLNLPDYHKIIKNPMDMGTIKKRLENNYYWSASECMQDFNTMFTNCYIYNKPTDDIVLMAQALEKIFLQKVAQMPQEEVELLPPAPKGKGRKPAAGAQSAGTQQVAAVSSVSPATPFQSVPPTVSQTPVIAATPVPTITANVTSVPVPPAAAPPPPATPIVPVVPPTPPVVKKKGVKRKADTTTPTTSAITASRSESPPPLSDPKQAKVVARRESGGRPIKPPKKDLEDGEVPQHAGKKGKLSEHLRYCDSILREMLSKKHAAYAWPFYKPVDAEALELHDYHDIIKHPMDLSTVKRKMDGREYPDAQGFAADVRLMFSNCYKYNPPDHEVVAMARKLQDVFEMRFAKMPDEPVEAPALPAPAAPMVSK

Structure (SMILES)	IC50 [1, 5] [nM]	IC50 [2, 6] [nM]	IC50 [3, 7] [nM]	IC50 ([4]; TR-FRET, read-out: BRD4 IC50) [nM]	further results
Cc1noc(C)c1-c1ccc2c(c1)C(O)(C1CCCCC1=O)C(=O)N2 (single isomer, unassigned) [Compound 1.30a, 5-(3,5-Dimethylisoxazol-4-yl)-3-hydroxy-3-(2-oxocyclohexyl)indolin-2-one]	58	52	25	70	
Cc1noc(C)c1-c1ccc2c(c1)C(O)(C1CCOCC1)C(=O)N2 (stereo not drawn) [Compound 1.16, 5-(3,5-dimethylisoxazol-4-yl)-3-hydroxy-3-(tetrahydro-2H-pyran-4-yl)indolin-2-one]	510	380	140	630	
Cc1noc(C)c1-c1ccc2c(c1)C(c1ccccc1)(N1CCC[C@H](O)C1)C(=O)N2 (stereo partly drawn) [Compound 2.16, 5-(3,5-dimethylisoxazol-4-yl)-3-((S)-3-hydroxypiperidin-1-yl)-3-phenylindolin-2-one]	23	9.6	9.9		
Cc1noc(C)c1-c1ccc2c(c1)C(c1ccccc1)(N1CCC[C@H](N)C1)C(=O)N2 (stereo partly drawn) [Compound 2.46, 3-((S)-3-aminopiperidin-1-yl)-5-(3,5-dimethylisoxazol-4-yl)-3-phenylindolin-2-one]	14	6.6	5.3	11	
Cc1noc(C)c1-c1ccc2c(c1)C(N[C@H](C)CO)(c1ccccc1)C(=O)N2 (single isomer, unassigned) [Compound 2.10a]	69	24	23		
Cc1noc(C)c1-c1ccc2c(c1)C(NCC(C)O)(C1CCCCC1)C(=O)N2 (stereo in doubt) [Compound 2.22, 3-cyclohexyl-5-(3,5-dimethylisoxazol-4-yl)-3-((R)-2-hydroxypropylamino)indolin-2-one]	42	32	23	81	EC50 (MV4-11): 116 nM
Cc1noc(C)c1-c1ccc2c(c1)C(c1ccsc1)(N1CCC[C@@H](N)C1)C(=O)N2 (single isomer, unassigned) [Compound 4.6b]				24	EC50 (MV4-11): 35 nM
Cc1noc(C)c1-c1ccc2c(c1)C(OCCO)(c1ccccc1)C(=O)N2 (stereo not drawn) [Compound 1.32, 5-(3,5-Dimethylisoxazol-4-yl)-3-(2-hydroxyethoxy)-3-phenylindolin-2-one]				79	EC50 (MV4-11; Homo sapiens, MV4-11, 72 h): 82 nM
Cc1noc(C)c1-c1ccc2c(c1)C(O)(c1ccsc1)C(=O)N2 (single isomer, unassigned) [Compound 4.1b, 5-(3,5-Dimethylisoxazol-4-yl)-3-hydroxy-3-(thiophen-3-yl)indolin-2-one]					IC50 [1]: 31 nM; EC50 (MV4-11; Homo sapiens, 72 h): 73 nM; IC50 [2]: 18 nM; IC50 [3]: 14 nM; IC50 ([4]; BRD4 IC50, TR-FRET): 34 nM
CCOC(=O)CC1(c2ccccc2)C(=O)Nc2ccc(-c3c(C)noc3C)cc21 (stereo not drawn) [Compound 3.3, Ethyl 2-(5-(3,5-dimethylisoxazol-4-yl)-2-oxo-3-phenylindolin-3-yl)acetate]				440	EC50 (MV4-11; Homo sapiens, MV4-11, 72 h): 787 nM
Cc1noc(C)c1-c1ccc2c(c1)C(c1ccsc1)(N1CCC[C@@H](N)C1)C(=O)N2 (single isomer, unassigned) [Compound 4.6a]				30	EC50 (MV4-11): 102 nM
